# Reference: paper PMC7689089, “Regorafenib combined with PD1 blockade increases CD8 T-cell infiltration by inducing CXCL10 expression in hepatocellular carcinoma” (Journal for Immunotherapy of Cancer, 2020)
# Read-outs that look alike come from different tables or passages of the source.
# Tests used:
# CXCL10 = test: Plasma CXCL10 in patients before and after 2 weeks of regorafenib; format: in vivo, human; conditions: patients with advanced HCC (n=1) and AML (n=7); after 2 weeks of treatment
# Description: Formalin-fixed paraffin-embedded HCC tissue and blood samples were obtained with informed consent from a published cohort of deidentified patients who underwent liver resection at the department of Surgery at Fundeni Clinical Institute, Bucharest, Romania.[31] Furthermore, we collected blood samples with informed consent from patients treated by regorafenib as standard of care (HCC) or in a phase I clinical trial of regorafenib monotherapy in patients with acute myeloid leukemia (AML). Peripheral blood was collected before regorafenib therapy and after 2 weeks of treatment and processed in a Clinical Laboratory Improvement Amendments-certified facility of the Steele Laboratories at MGH. […]
# treated by regorafenib as standard of care (HCC) (using the DFCI Protocol No.: 13-416 “Collection of Specimens and Clinical Data for Patients with Known or Suspected Solid Tumors”, PI, Dr. Juric, MGH) or in a phase I clinical trial of regorafenib monotherapy in acute myeloid leukemia (AML) patients (ClinicalTrials.gov Identifier: NCT03042689, PI, Hobbs, MGH). Both protocols have been IRB approved, and written consent was obtained from all patients.
# Protein analyses. […]
# (§1) Flow cytometry analysis. […] After preparation, cells were suspended in 2ml of PBS with 2% BSA, then counted using a cell counting plate (Kova slide) (if the final concentration of cell exceeded 10^7 cells/ml, a dilution factor was applied). […]
# RIL-175 cells = test: STAT1/STAT3 activity in RIL-175 cells in vitro (western blot); format: cell-based, mouse; conditions: 1 µM in vitro
# Procedure: (§2) (A) Changes induced by combination of regorafenib (10 mg/kg) with anti-PD1 antibody in immune-related pathways from the gene set enrichment analysis (GSEA) using curated gene sets in RIL-175 HCC model (see also online supplemental dataset S1 and figure S2E). (B, C) Changes induced by combination of regorafenib (10 mg/kg) with anti-PD1 antibody in STAT3 and STAT1 activity (B), showing an increased ratio of phosphorylated (p)-STAT1/p-STAT3 (normalized to total STAT1 and STAT3, respectively) by western blot analysis of whole RIL-175 HCC tissue (C) (n=4 mice). (D) Treatment with regorafenib increases CXCL10 expression by RIL-175 HCC cells in vitro after 36 hours, in a dose-dependent manner (n=6). Culture medium alone was used as a negative control (NC). […] (J, K) Combination therapy increases CXCL10 protein expression in whole RIL-175 tumor tissue 6 hours and 12 hours after in vivo when regorafenib treatment was used at doses of 10 mg/kg (R10) and 20 mg/kg (R20) (n=3) by western blot analysis (J); quantitative data of CXCL10/β-actin ratios are shown in (K). […]
# as §1
# STAT3 = test: STAT1/STAT3 phosphorylation in RIL-175 HCC tissue; format: in vivo, mouse; conditions: samples of the PK study
# Procedure: as §2, §1
# HCA1 cells = test: CXCL10 secretion by HCA1 cells in vitro; format: cell-based, mouse; conditions: 36hr; compared with increase in RIL-175 cells
# in vivo = conditions: C57Bl/6, mouse, po; for AUC: Plasma AUC; for Cmax: Plasma Cmax
# Procedure: (§3) From the orthotopic HCC and liver damage mouse models described above, blood samples were collected at 1, 4, 7 and 24 hours after once-daily oral administration of 5, 10 and 20 mg/kg regorafenib, respectively, for 5 days. Anti-PD1 antibody was given on days 1 and 4 with dose of 10 mg/kg by intraperitoneal injection. Blood samples were drawn from four to five animals per sampling time point. Regorafenib and its active metabolites M-2, M-4 and M-5 were analyzed in plasma samples using a validated bioanalytical liquid chromatography-tandem mass spectrometry.[25 33] Pharmacokinetic (PK) parameters were derived from the area under the plasma concentration versus time curve (AUC) using a non-compartmental analysis.
# (§4) In addition, we evaluated PK parameters in HCC-bearing mice after regorafenib administration alone at doses of 5, 10 and 20 mg/kg or in combination with anti-PD1 therapy at the 10 mg/kg regorafenib dose for 5 days to achieve a steady state.
# [1] = in vivo
# Procedure: as §3, §4
structure (smiles),measurement,setting,value
CNC(=O)c1cc(Oc2ccc(NC(=O)Nc3ccc(Cl)c(C(F)(F)F)c3)c(F)c2)ccn1 [regorafenib],Concentration of plasma CXCL10,CXCL10,increased concentration
same,STAT1 and STAT3 activity (p-STAT1/p-STAT3) in RIL-175 cells,RIL-175 cells,STAT1 activation and STAT3 inhibition
same,Phosphorylated (p)STAT3 levels in HCC tissues,STAT3,inhibited
same,Level of CXCL10 secreted by HCA1 cells,HCA1 cells,to a lesser extent
same,AUC,in vivo; 5 mg/kg,1450 ng·h/mL
same,Cmax,in vivo; 5 mg/kg,108 ng/mL
same,AUC,in vivo; 10 mg/kg,2160 ng·h/mL
same,Cmax,in vivo; 10 mg/kg,201 ng/mL
same,Tmax,"in vivo; 10 mg/kg, Plasma Tmax",1 h
same,Tmax,"in vivo; 10 mg/kg, Tumor Tmax",7 h
same,AUC,in vivo; 20 mg/kg,5750 ng·h/mL
same,Cmax,in vivo; 20 mg/kg,485 ng/mL
same,Tumor AUC,"[1]; C57Bl/6, mouse, po, 5 mg/kg",2320 ng·h/mL
same,Tumor AUCnorm,"[1]; C57Bl/6, mouse, po, 5 mg/kg",0.465 kg·h/L
same,Tumor Cmax,"[1]; C57Bl/6, mouse, po, 5 mg/kg",191 µg/kg
same,Plasma AUC,"[1]; C57Bl/6, mouse, po, 10 mg/kg",2140 ng·h/mL
same,Plasma Cmax,"[1]; C57Bl/6, mouse, po, 10 mg/kg",190 ng/mL
same,Tumor AUC,"[1]; C57Bl/6, mouse, po, 10 mg/kg",4670 ng·h/mL
same,Tumor AUCnorm,"[1]; C57Bl/6, mouse, po, 10 mg/kg",0.467 kg·h/L
same,Tumor Cmax,"[1]; C57Bl/6, mouse, po, 10 mg/kg",291 µg/kg
same,Tumor AUC,"[1]; C57Bl/6, mouse, po, 20 mg/kg",7930 ng·h/mL
same,Tumor AUCnorm,"[1]; C57Bl/6, mouse, po, 20 mg/kg",0.396 kg·h/L
same,Tumor Cmax,"[1]; C57Bl/6, mouse, po, 20 mg/kg",575 µg/kg
same,"Cmax in the tumor tissue, combination group versus R10 group",[1]; mouse,higher
same,Plasma AUC0–24 and Cmax versus dose,[1]; mouse,dose-proportional
same,Tumor AUC0–24 and Cmax versus dose,[1]; mouse,dose-proportional increase
same,Plasma AUCnorm,"[1]; mouse, po, 5 mg/kg",0.290 kg·h/L
same,Plasma AUCnorm,"[1]; mouse, po, 10 mg/kg",0.241 kg·h/L
same,Plasma AUCnorm,"[1]; mouse, po, 20 mg/kg",0.287 kg·h/L
